Data published in US20090047243A1, “COMBINATIONS FOR THE TREATMENT OF B-CELL PROLIFERATIVE DISORDERS” (priority 2007, published 2009).
Structures can show the parent of a compound that is named as a salt. Where two headings read alike, the source gives them in different places.

Assays:
Experiment in all cases: Anti-proliferation assay (ATPLite, 72 h)
[1] = test system: human multiple myeloma cells (MM.1R); type: cell-based; set-up: key: S = lnfX·lnfY·ΣIdata(Idata−ILoewe), volume over Loewe additivity; settings: MM.1R
Experimental: (§1) ANBL6 and INA-6 culture media was also supplemented with 10 ng/ml IL-6. […] MM.1S, MM.1R, OCI-ly10, Karpas 422, and SU-DHL6 cells were provided by the Dana Farber Cancer Institute. H929, RPMI-8226, GA-10, and Farage cells were from ATCC (Cat #'s CCL-155, CRL-9068, CRL-2392 and CRL-2630 respectively). MOLP-8, EJM, KSM-12-PE, and OPM2 were from DSMZ. The ANBL6 and INA-6 cell lines were provided by the M. D. Anderson Cancer Research Center. Compounds were prepared in DMSO at 1000× the highest desired concentration. Master plates were generated consisting of serially diluted compounds in 2- or 3-fold dilutions in 384-well format. For single agent dose response curves, the master plates consisted of 9 individual compounds at 12 concentrations in 2- or 3-fold dilutions. For combination matrices, master plates consisted of individual compounds at 6 or 9 concentrations at 2- or 3-fold dilutions. […] To obtain combination data, two master plates were diluted into the assay plates. […] Thirty microliters of ATPLite (Perkin Elmer) at room temperature was then added to each well. […] Measurements were taken at the top of the well using a luminescence aperture and a read time of 0.1 seconds per well. The percent inhibition (% I) for each well was calculated using the following formula: % I=[(avg. untreated wells-treated well)/(avg. untreated wells)]×100. […] Negative inhibition values result from local variations in treated wells as compared to untreated wells. […] The uncertainty of each fitted parameter was estimated from the range over which the change in reduced chi-squared was less than one, or less than minimum reduced chi-squared if that minimum exceeded one, to allow for underestimated σI errors. Single agent curve data were used to define a dilution series for each compound to be used for combination screening in a 6×6 matrix format. […] The Loewe additivity model was used to quantify combination effects. […] A “Synergy Score” was also used, where the Synergy Score S=log fX log fY ΣIdata(Idata-ILoewe), summed over all non-single-agent concentration pairs, and where log fX,Y is the natural logarithm of the dilution factors used for each single agent. This effectively calculates a volume between the measured and Loewe additive response surfaces, weighted towards high inhibition and corrected for varying dilution factors. An uncertainty σS was calculated for each synergy score, based on the measured errors for the Idata values and standard error propagation.

[2] = test system: human multiple myeloma cells (MM.1S); type: cell-based; set-up: key to synergy score / synergy (score), PDEi × HE-NECA: S = lnfX·lnfY·ΣIdata(Idata−ILoewe), volume over Loewe additivity; settings: for inhibition at 0.256 µM: Papaverine 0.256 μM; for inhibition at 0.256 µM / inhibition at 0.767 µM / inhibition at 2.3 µM / inhibition at 6.9 µM / inhibition at 20.7 µM: read-out: percent inhibition of ATP in MM.1S cells; for inhibition at 0.767 µM: Papaverine 0.767 μM; for inhibition at 2.3 µM: Papaverine 2.3 μM; for inhibition at 6.9 µM: Papaverine 6.9 μM
Experimental: as §1

[3] = test system: H929 multiple myeloma cell line; type: cell-based, human; set-up: key: S = lnfX·lnfY·ΣIdata(Idata−ILoewe), volume over Loewe additivity; settings: H929
Experimental: as §1

[4] = test system: RPMI-8226 multiple myeloma cell line; type: cell-based, human; set-up: key: S = lnfX·lnfY·ΣIdata(Idata−ILoewe), volume over Loewe additivity; settings: RPMI-8226
Experimental: as §1

[5] = in combination with adenosine receptor agonist ADAC
[6] = in combination with adenosine receptor agonist HE-NECA
[7] = Homo sapiens, MM1.S, 10 ng/mL IL-6, HE-NECA conc. (μM)
[8] = Homo sapiens, MM1.S, no IL-6, HE-NECA conc. (nM)
[9] = PDE inhibitor crossed with (S) ENBA, MM.1S
[10] = PDE inhibitor crossed with ADAC, MM.1S
[11] = PDE inhibitor crossed with Chloro-IB-MECA, MM.1S
[12] = PDE inhibitor crossed with HE-NECA, MM.1S
[13] = PDE inhibitor crossed with (S) ENBA
[14] = PDE inhibitor crossed with ADAC
[15] = PDE inhibitor crossed with Chloro-IB-MECA
[16] = PDE inhibitor crossed with HE-NECA
[17] = MM.1S, compared among four adenosine receptor antagonists

COc1ccc(Cc2nccc3cc(OC)c(OC)cc23)cc1OC [Papaverine hydrochloride, 1-[(3.4-dimethoxyphenyl)-methyl]-6,7-dimethoxyisoquinolone]
synergy score [1, 5]: 3.395 | synergy score [1, 6]: 2.128 | inhibition at 0.256 µM [2, 7]: -2.4% | inhibition at 0.767 µM [2, 7]: -0.1% | inhibition at 2.3 µM [2, 7]: 7.9% | inhibition at 6.9 µM [2, 7]: 46% | inhibition at 20.7 µM ([2]; Homo sapiens, MM1.S, 10 ng/mL IL-6, Papaverine 20.7 μM, HE-NECA conc. (μM)): 70% | inhibition at 0.256 µM [2, 8]: 9.1% | inhibition at 0.767 µM [2, 8]: 8.8% | inhibition at 2.3 µM [2, 8]: 23% | inhibition at 6.9 µM [2, 8]: 46% | inhibition at 20.7 µM ([2]; Homo sapiens, MM1.S, no IL-6, Papaverine 20.7 μM, HE-NECA conc. (nM)): 68% | synergy score [2, 9]: 2.24 | synergy score [2, 10]: 3.55 | synergy score [2, 11]: 2.67 | synergy score [2, 12]: 2.09 | synergy score ([2]; in combination with adenosine receptor agonist ADAC, MM.1S): 3.554 | synergy score ([2]; in combination with adenosine receptor agonist HE-NECA, MM.1S): 2.087 | synergy score [3, 13]: 0.77 | synergy score [3, 14]: 1.19 | synergy score [3, 15]: 1.42 | synergy score [3, 16]: 1.03 | synergy score [3, 5]: 1.193 | synergy score [3, 6]: 1.025 | synergy score [4, 5]: 1.158 | synergy score [4, 6]: 0.3933

COc1cc2c(cc1OC)-c1cc(=Nc3c(C)cc(C)cc3C)n(C)c(=O)n1CC2.NCCNC(=O)Cc1ccc(NC(=O)Cc2ccc(Nc3ncnc4c3ncn4[C@@H]3O[C@H](CO)[C@@H](O)[C@H]3O)cc2)cc1 [ADAC + Trequinsin]
percent inhibition of ATP in MM.1S cells ([2]; 10 ng/mL IL-6, ADAC 1.17 μM, Trequinsin conc. (μM)): 94% | percent inhibition of ATP in MM.1S cells ([2]; 10 ng/mL IL-6, ADAC 3.51 μM, Trequinsin conc. (μM)): 93% | percent inhibition of ATP in MM.1S cells ([2]; 10 ng/mL IL-6, ADAC 10.5 μM, Trequinsin conc. (μM)): 93% | percent inhibition of ATP in MM.1S cells ([2]; 10 ng/mL IL-6, ADAC 31.6 μM, Trequinsin conc. (μM)): 93% | percent inhibition of ATP in MM.1S cells ([2]; 10 ng/mL IL-6, ADAC […], Trequinsin conc. (μM)): 95%

C[C@@H]1C[C@H]2[C@@H]3CCC4=CC(=O)C=C[C@]4(C)[C@@]3(F)[C@@H](O)C[C@]2(C)[C@@]1(O)C(=O)CO [dexamethasone]
IC50 ([2]; Homo sapiens, MM1.S, 72 h, MM.1S, 72 h, +IL-6 (10 ng/ml)): 61.7 nM | IC50 ([2]; Homo sapiens, MM1.S, 72 h, MM.1S, no IL-6): 179 nM | change in IC50 when cultured in the presence of IL-6 ([2]; MM.1S, 10 ng/ml IL-6 vs no IL-6): 2.9 fold

CCCn1c(=O)c2[nH]c(-c3ccc(OCC(=O)Nc4ccc(C#N)cc4)cc3)nc2n(CCC)c1=O [MRS 1574]
inhibition at 0.175 µM ([2]; Homo sapiens, MM1.S, after addition of 175 nM MRS 1754, Cl-IB-MECA 0 μM, Trequinsin conc. (μM), read-out: Percent inhibition of ATP in MM.1S cells): -13%

CCCn1c(=O)c2[nH]c(C3CCCC3)nc2n(CCC)c1=O [DPCPX, 8-cyclopentyl-1,3-dipropylxanthine]
inhibition at 0.174 µM ([2]; Homo sapiens, MM1.S, after addition of 174 nM DPCPX, CI-IB-MECA 0 μM, Trequinsin conc. (μM), read-out: Percent inhibition of ATP in MM.1S cells): -7.5%

CCCOc1ccccc1-c1nc2nn[nH]c2c(=O)[nH]1 [Zaprinast]
synergy score [2, 9]: 0.16 | synergy score [2, 11]: 0.05 | synergy score [2, 12]: 0.025 | synergy score [3, 13]: 0.05 | synergy score [3, 15]: 0.03 | synergy score [3, 16]: 0.13

CNC(=O)[C@H]1O[C@@H](n2cnc3c(NCc4cccc(I)c4)nc(Cl)nc32)[C@H](O)[C@@H]1O.COc1cc2c(cc1OC)-c1cc(=Nc3c(C)cc(C)cc3C)n(C)c(=O)n1CC2 [Cl-IB-MECA + Trequinsin]
percent inhibition of ATP in MM.1S cells ([2]; after addition of 170 nM MRS 1523, Cl-IB-MECA 2.96 μM, Trequinsin conc. (μM)): 93%

CCCCC#Cc1nc(N)c2ncn([C@@H]3O[C@H](C(=O)NCC)[C@@H](O)[C@H]3O)c2n1.COc1cc2c(cc1OC)-c1cc(=Nc3c(C)cc(C)cc3C)n(C)c(=O)n1CC2 [HE-NECA + Trequinsin]
percent inhibition of ATP in MM.1S cells ([2]; 10 ng/mL IL-6, Trequinsin 3.39 μM, HE-NECA conc. (nM)): 94% | percent inhibition of ATP in MM.1S cells ([2]; 10 ng/mL IL-6, Trequinsin 30.5 μM, HE-NECA conc. (nM)): 100% | percent inhibition of ATP in MM.1S cells ([2]; no IL-6, Trequinsin 30.5 (unit not given), HE-NECA conc. (nM)): 98%

CCCc1nn(C)c2c(=O)[nH]c(-c3cc(S(=O)(=O)N4CCN(C)CC4)ccc3OCC)nc12 [Sildenafil]
synergy score [2, 9]: 0 | synergy score [2, 10]: 0 | synergy score [2, 11]: 0 | synergy score [2, 12]: 0 | synergy score [3, 13]: 0.03 | synergy score [3, 14]: 0.14 | synergy score [3, 15]: 0.03 | synergy score [3, 16]: 0

CCCCC#Cc1nc(N)c2ncn([C@@H]3O[C@H](C(=O)NCC)[C@@H](O)[C@H]3O)c2n1.COc1ccc(Cc2nccc3cc(OC)c(OC)cc23)cc1OC [HE-NECA + Papaverine]
percent inhibition of ATP in MM.1S cells ([2]; 10 ng/mL IL-6, Papaverine 20.7 μM, HE-NECA conc. (μM)): 97% | percent inhibition of ATP in MM.1S cells ([2]; no IL-6, Papaverine 20.7 μM, HE-NECA conc. (nM)): 95%

CNC(=O)[C@H]1O[C@@H](n2cnc3c(NCc4cccc(I)c4)nc(Cl)nc32)[C@H](O)[C@@H]1O.COc1cc2c(cc1OC)-c1cc(=Nc3c(C)cc(C)cc3C)n(C)c(=O)n1CC2 [CI-IB-MECA + Trequinsin]
percent inhibition of ATP in MM.1S cells ([2]; after addition of 174 nM DPCPX, CI-IB-MECA 2.96 μM, Trequinsin conc. (μM)): 94% | percent inhibition of ATP in MM.1S cells ([2]; no adenosine receptor antagonist added, CI-IB-MECA 1.48 μM, Trequinsin conc. (μM)): 93%

Nc1nc2c(cnn2CCc2ccccc2)c2nc(-c3ccco3)nn12 [SCH 58261]
blocking of chloro-IB-MECA antiproliferative activity ([2]; MM.1S, 72 h, antagonist SCH 58261 at 78 nM): > 50% | antagonist effect on (S)-ENBA inhibition of cell growth ([2]; MM.1S, 72 h, SCH 58261 78 nM, MRS 1523 183 nM, DPCPX 178 nM, MRS 1574 175 nM): most active of the antagonists | blocking of chloro-IB-MECA antiproliferative activity ([2]; MM.1S, antagonist concentration increased 2-fold): > 70% | antagonist effect on chloro-IB-MECA crossed with trequinsin [2, 17]: most active compound | antagonist effect on synergy of (S)-ENBA crossed with trequinsin [2, 17]: most active compound
